Holding throughout (format): in vivo
For assay [1], the system named is Spodoptera littoralis. Briefly: Spodoptera littoralis persistence test on sprayed cotton plants (increased safety profile / bio-degradability). As to conditions: 12.5 ppm on cotton plants, 10 L3 larvae, mortality after 6 days incubation; for Control after 10 days/%: leaves excised 10 days after treatment; for pest or weed control at 12.5 ppm: Spodoptera littoralis. On the procedure:
Biological Examples Showing Increased Safety Profile:
Spodoptera littoralis (Egyptian Cotton Leafworm)
Cotton plants in the 5th leaf stage (around 5 weeks old) are treated in an automated turn table spray chamber. Plants are stored in the greenhouse length during the whole test period.
2, 16 and optionally 10 days after treatment 4 leaves from each sample are excised, placed into 14 cm plastic petri dishes on wet filter paper. The infestation of 10 L3-Spodoptera littoralis is made immediately afterwards. After an incubation period of 6 days the samples are checked for mortality.
In the following series of experiments the compounds of the invention are compared with the corresponding isoxazoline analogues from the prior art on Spodoptera littoralis (Egyptian cotton leafworm) performed as described in the method above.

The subject of another assay is Plutella xylostella. Put plainly: Plutella xylostella (diamond back moth) artificial diet test. As to conditions: 144 h, 200 ppm (concentration in well 18 ppm), L2 larvae, larval mortality and growth regulation after 6 days. On the procedure: Plutella xylostella (Diamond Back Moth): 24-well microtiter plate (MTP) with artificial diet was treated with test solutions at an application rate of 200 ppm (concentration in well 18 ppm) by pipetting. After drying, the MTPs were infested with L2 larvae (7-12 per well). After an incubation period of 6 days, samples were checked for larval mortality and growth regulation.

The subject of assay [2] is Spodoptera littoralis. Put plainly: Spodoptera littoralis (Egyptian cotton leafworm) cotton leaf disc test. As to conditions: foliar, 72 h, 200 ppm sprayed on cotton leaf discs, mortality, feeding behavior, growth regulation 3 days after treatment. The protocol: Spodoptera littoralis (Egyptian Cotton Leafworm): Cotton leaf discs were placed on agar in a 24-well microtiter plate and sprayed with test solutions at an application rate of 200 ppm. After drying, the leaf discs were infested with […]. The samples were checked for mortality, feeding behavior, and growth regulation 3 days after treatment (DAT).

The test system of a further assay is Heliothis virescens. Put plainly: Heliothis virescens (tobacco budworm) egg test on artificial diet. As to conditions: 96 h, 200 ppm (concentration in well 18 ppm), eggs on artificial diet, egg mortality, larval mortality, growth regulation after 4 days. The protocol:
Heliothis virescens (Tobacco Budworm): Eggs (0-24 h old) were placed in 24-well microtiter plate on artificial diet and treated with test solutions at an application rate of 200 ppm (concentration in well 18 ppm) by pipetting. After an incubation period of 4 days, samples were checked for egg mortality, larval mortality, and growth regulation.

In the next assay the test system is Tetranychus urticae. Briefly: Tetranychus urticae (two-spotted spider mite) bean leaf disc test. As to conditions: foliar, 192 h, 200 ppm sprayed on bean leaf discs, mixed ages, egg, larval and adult mortality 8 days later. An excerpt:
Tetranychus urticae (Two-Spotted Spider Mite): Bean leaf discs on agar in 24-well microtiter plates were sprayed with test solutions at an application rate of 200 ppm. After drying, the leaf discs are infested with mite populations of mixed ages. 8 days later, discs are checked for egg mortality, larval mortality, and adult mortality.

For a further assay, the system named is Thrips tabaci. Briefly: Thrips tabaci (onion thrips) sunflower leaf disc test. As to conditions: foliar, 168 h, 200 ppm sprayed on sunflower leaf discs, mixed ages, mortality after 7 days. The protocol: Thrips tabaci (Onion Thrips): Sunflower leaf discs were placed on agar in a 24-well microtiter plate and sprayed with test solutions at an application rate of 200 ppm. After drying, the leaf discs were infested with a thrips population of mixed ages. After an incubation period of 7 days, samples were checked for mortality.

A further assay concerns Diabrotica balteata. Briefly: Diabrotica balteata (corn root worm) artificial diet test. As to conditions: 120 h, 200 ppm (concentration in well 18 ppm), L2 larvae, larval mortality and growth regulation after 5 days. The protocol:
Diabrotica balteata (Corn Root Worm): A 24-well microtiter plate (MTP) with artificial diet was treated with test solutions at an application rate of 200 ppm (concentration in well 18 ppm) by pipetting. After drying, the MTPs were infested with L2 larvae (6-10 per well). After an incubation period of 5 days, samples were checked for larval mortality and growth regulation.

The mark [3] stands for this setting: 48 h, leaves excised 2 days after treatment, read-out: Control after 2 days/%.
The mark [4] stands for this setting: 384 h, leaves excised 16 days after treatment, read-out: Control after 16 days/%.

Structures are written as SMILES. Like-named read-outs stand apart in the source and are kept apart here. A value given as a limit tells only on which side of the number the result lay.

Regarding `Cc1cc(C2=NOC(c3cc(Cl)cc(Cl)c3)(C(F)(F)F)C2)ccc1C(=O)NCc1ccccn1` (centres unmarked) [Compound 1-061 from EP1731512, reference compound], the “Control after 10 days/%” value in the assay with Spodoptera littoralis [1] amounted to 100%. Further, the pest or weed control at 12.5 ppm with Spodoptera littoralis [1] (setting [3]) and in the assay with Spodoptera littoralis [1] (setting [4]) was 100% throughout.

As to `Cc1cc(C2=NOC(c3cc(Cl)cc(Cl)c3)(C(F)(F)F)C2)ccc1C(=O)NCC(=O)NCC(F)(F)F` (centres unmarked) [Compound 3-086 from EP1731512, reference compound], the “Control after 10 days/%” value in the assay with Spodoptera littoralis [1] was found to be 100%. The pest or weed control at 12.5 ppm with Spodoptera littoralis [1] (setting [3]) and with Spodoptera littoralis [1] (setting [4]) was 100% throughout.

For `Cc1cc(C2=NOC(c3cc(Cl)cc(Cl)c3)(C(F)(F)F)C2)ccc1C(=O)NC1CS(=O)(=O)C1` (centres unmarked) [Compound A10 from WO2009/080250, reference compound], in the assay on Spodoptera littoralis [1], the “Control after 10 days/%” value was determined as 100%. Besides, the pest or weed control at 12.5 ppm in the assay with Spodoptera littoralis [1] (setting [3]) and in the assay on Spodoptera littoralis [1] (setting [4]) was 100% in each case.

For `Cc1cc(C2=NSC(c3cc(Cl)cc(Cl)c3)(C(F)(F)F)C2)ccc1C(=O)NC1CCC1` (centres unmarked) [Compound A24], in the assay with Spodoptera littoralis [1] (leaves excised 2 days after treatment), the “Control after 2 days/%” value was determined as 100%. Further, in the assay on Spodoptera littoralis [1] (leaves excised 16 days after treatment), the “Control after 16 days/%” value was 0%.

On to `Cc1cc(C2=NSC(c3cc(Cl)cc(Cl)c3)(C(F)(F)F)C2)ccc1C(=O)NC1CC1` (centres unmarked) [Compound A52], for which the pest or weed control at 200 ppm in the assay with Plutella xylostella, with Spodoptera littoralis [2], in the assay on Heliothis virescens, in the assay with Tetranychus urticae, with Thrips tabaci and in the assay on Diabrotica balteata was not below 80% in each case.

As to `Cc1cc(C2=NSC(c3cc(Cl)cc(Cl)c3)(C(F)(F)F)C2)ccc1C(=O)NCCC1OCCO1` (centres unmarked) [Compound A54], the pest or weed control at 200 ppm with Plutella xylostella, with Spodoptera littoralis [2], with Heliothis virescens, in the assay on Tetranychus urticae, in the assay on Thrips tabaci and in the assay with Diabrotica balteata was not below 80% throughout.

Regarding `Cc1cc(C2=NSC(c3cc(Cl)cc(Cl)c3)(C(F)(F)F)C2)ccc1C(=O)Nc1ccccc1F` (centres unmarked) [Compound A60], the pest or weed control at 200 ppm in the assay on Plutella xylostella, with Spodoptera littoralis [2], with Heliothis virescens, in the assay on Tetranychus urticae, in the assay on Thrips tabaci and with Diabrotica balteata was not below 80% in each case.

On to `CNC(=O)c1ccc(C2=NSC(c3cc(Cl)cc(Cl)c3)(C(F)(F)F)C2)cc1C` (centres unmarked) [Compound A62], for which the pest or weed control at 200 ppm with Plutella xylostella, in the assay with Spodoptera littoralis [2], with Heliothis virescens, with Tetranychus urticae, with Thrips tabaci and with Diabrotica balteata was not below 80% each time.

As for `C=CCNC(=O)c1ccc(C2=NSC(c3cc(Cl)cc(Cl)c3)(C(F)(F)F)C2)cc1C` (centres unmarked) [Compound A63], the pest or weed control at 200 ppm with Plutella xylostella, with Spodoptera littoralis [2], in the assay on Heliothis virescens, in the assay with Tetranychus urticae, in the assay with Thrips tabaci and with Diabrotica balteata was not below 80% each time.

Take `CCN1OC[C@@H](NC(=O)c2ccc(C3=NS[C@@](c4cc(Cl)cc(Cl)c4)(C(F)(F)F)C3)cc2C)C1=O` [Compound A78, 4-[(5S)-5-(3,5-dichlorophenyl)-5-(trifluoromethyl)-4H-isothiazol-3-yl]-N-[(4R)-2-ethyl-3-oxo-isoxazolidin-4-yl]-2-methyl-benzamide]: the pest or weed control at 200 ppm in the assay with Plutella xylostella, in the assay with Spodoptera littoralis [2], in the assay with Heliothis virescens, in the assay with Tetranychus urticae, in the assay on Thrips tabaci and in the assay with Diabrotica balteata was not below 80% each time.

As for `Cc1cc(C2=NS[C@@](c3cc(Cl)cc(Cl)c3)(C(F)(F)F)C2)ccc1C(=O)N[C@@H]1CON(CC(F)(F)F)C1=O` [Compound A79, 4-[(5S)-5-(3,5-dichlorophenyl)-5-(trifluoromethyl)-4H-isothiazol-3-yl]-2-methyl-N-[(4R)-3-oxo-2-(2,2,2-trifluoroethyl)isoxazolidin-4-yl]benzamide], the pest or weed control at 200 ppm in the assay on Plutella xylostella, in the assay on Spodoptera littoralis [2], in the assay on Heliothis virescens, in the assay with Tetranychus urticae, in the assay with Thrips tabaci and in the assay with Diabrotica balteata was not below 80% throughout.

For the compound `N#Cc1cc(C2=NSC(c3cc(Cl)cc(Cl)c3)(C(F)(F)F)C2)ccc1-n1cncn1` (centres unmarked) [Compound B1, 5-[5-(3,5-dichlorophenyl)-5-(trifluoromethyl)-4,5-dihydro-isothiazol-3-yl]-2-(1,2,4-triazol-1-yl)benzonitrile], the pest or weed control at 200 ppm in the assay with Plutella xylostella, with Spodoptera littoralis [2], in the assay with Heliothis virescens, in the assay on Tetranychus urticae, in the assay on Thrips tabaci and in the assay with Diabrotica balteata was not below 80% in each case.

As for `N#Cc1cc(C2=NS[C@@](c3cc(Cl)c(Cl)c(Cl)c3)(C(F)(F)F)C2)ccc1-n1cncn1` [Compound B2, 2-(1,2,4-triazol-1-yl)-5-[(5S)-5-(3,4,5-trichlorophenyl)-5-(trifluoromethyl)-4H-isothiazol-3-yl]benzonitrile], the pest or weed control at 200 ppm with Plutella xylostella, in the assay with Spodoptera littoralis [2], with Heliothis virescens, with Tetranychus urticae, in the assay on Thrips tabaci and in the assay on Diabrotica balteata was not below 80% throughout.

As to `CCO/N=C/NC(=O)c1ccc(C2=NSC(c3cc(Cl)cc(Cl)c3)(C(F)(F)F)C2)cc1C` (centres unmarked) [Compound C2, 4-[5-(3,5-dichlorophenyl)-5-(trifluoromethyl)-4H-isothiazol-3-yl]-N-[(E)-ethoxyiminomethyl]-2-methyl-benzamide], the pest or weed control at 200 ppm in the assay with Plutella xylostella, in the assay with Spodoptera littoralis [2], in the assay with Heliothis virescens, in the assay on Tetranychus urticae, in the assay with Thrips tabaci and in the assay on Diabrotica balteata was not below 80% in each case.

Take `Cc1cc(C2=NSC(c3cc(Cl)c(Cl)c(Cl)c3)(C(F)(F)F)C2)ccc1C(=O)NC1CS(=O)(=O)C1` (centres unmarked) [Compound D2, N-(1,1-dioxothietan-3-yl)-2-methyl-4-[5-(3,4,5-trichlorophenyl)-5-(trifluoromethyl)-4H-isothiazol-3-yl]benzamide]: the pest or weed control at 200 ppm in the assay with Plutella xylostella, with Spodoptera littoralis [2], in the assay on Heliothis virescens, with Tetranychus urticae, in the assay with Thrips tabaci and with Diabrotica balteata was not below 80% throughout.

For the compound `Cc1cc(C2=NSC(c3cc(Cl)c(Cl)c(Cl)c3)(C(F)(F)F)C2)ccc1C(=O)NC1C[S+]([O-])C1` (centres unmarked) [Compound D3, 2-methyl-N-(1-oxothietan-3-yl)-4-[5-(3,4,5-trichlorophenyl)-5-(trifluoromethyl)-4H-isothiazol-3-yl]benzamide], the pest or weed control at 200 ppm with Plutella xylostella, in the assay with Spodoptera littoralis [2], in the assay with Heliothis virescens, in the assay on Tetranychus urticae, in the assay on Thrips tabaci and in the assay on Diabrotica balteata was not below 80% each time.

The record behind these values is patent US9078444B2, “Isothiazoline derivatives as insecticidal compounds” (Syngenta Participations AG, priority 2011, dated 2015).
